Data from patent US9012439B2, “Use of electrophilic compounds for inducing platelet production or maintaining platelet function” (University of Rochester, priority 2007, dated 2015).

Columns and labels:
[1] = system: primary human megakaryocytes; test: Reactive oxygen species production in primary human megakaryocytes; assay type: cell-based; settings: 1 h and 6 h
Experimental: Human CD34+ cord blood cells were obtained from the National Disease Research Interchange (NDRI, Philadelphia, Pa.). Cells were plated at 2.5×10^5 cells per well in a 12-well plate and cultured in serum-free medium as previously described (Zeuner et al., “Chemotherapy-induced Thrombocytopenia Derives from the Selective Death of Megakaryocyte Progenitors and Can Be Rescued by Stem Cell Factor,” Cancer Res 67:4767-4773 (2007), which is hereby incorporated by reference in its entirety) and supplemented with 100 ng/mL of rhTPO. After 14 days in culture, megakaryocytes were identified by staining with a CD61-FITC antibody and analyzed on a BD Biosciences FACSCalibur flow cytometer. Data were analyzed using FlowJo software (Treestar, Ashland, Oreg.). Cell images were captured using an inverted microscope (Olympus IX81). Ten μM carboxy-H2DCFDA was added to cells for 20 min at RT. The cells were washed and immediately analyzed by flow cytometry. Five μM of MitoSOX Red dye in HBSS containing Mg^2+ and Ca^2+ was added to the cells for 15 min at 37° C. The cells were washed in HBSS and analyzed by flow cytometry.

Meg-01-derived platelets = test: Collagen-induced shape change of Meg-01-derived platelets; assay type: cell-based, human; settings: platelets from Meg-01 cells treated 10 μM for 24 h; collagen 10 μg/mL, 15 min
Experimental: (§1) Platelets were isolated from the Meg-01 cells and human blood as described above. Both normal human platelets and Meg-01-derived platelets were stained with annexin V-FITC then treated with 10 μg/ml of collagen for 15 min. Cells were analyzed for collagen-induced annexin V binding and change in size and shape by flow cytometry. Platelets were isolated from primary human megakaryocytes and primary mouse megakaryocytes as described above. Primary human platelets were stained with CD41-FITC and primary mouse platelets were stained with CD61-PE then treated with 10 μg/mL of collagen. Cells were analyzed for collagen-induced CD61/CD41 upregulation and change in size and shape using flow cytometry.

C57BL/6 mice = test: Circulating platelet number in unirradiated mice; assay type: in vivo, mouse (C57BL/6); settings: unirradiated mice, 1 mg/kg IV for 4 consecutive days
Experimental: Seven or 8-week-old male C57BL/6 mice (Jackson Laboratories) were either exposed to 5 Gy cesium (Cs^137) total body irradiation (TBI) using a Model 8114 6000 Curie Shepherd Cs^137 irradiator (approximately 3200 Curie sealed Cs^137 source) with a dose rate of […] or left unexposed. Mice (n=4) received intravenous injections of vehicle (8% DMSO) or 15d-PGJ2 (1 mg/kg) or CDDO-Me (250 μg/kg) for 4 consecutive days from day 1 (days 1, 2, 3 and 4 post-irradiation). Blood was obtained from the aorta or the orbital sinus. Platelets were counted prior to radiation exposure and after radiation exposure on day 10, day 22, and day 31 in Example 7, or days 4, 10, 16, and 21 in Example 9 using the Heska® CBC-Diff™ Veterinary Analyzer (Fort Collins, Colo.). Data are expressed as average platelet counts from two separate experiments. For the unirradiated mice, platelets were counted on day 4, day 10, and day 15 in Example 7 or on the same days in Example 9.

M07e cells = test: Platelet production from M07e cells (flow cytometry); assay type: cell-based; settings: 10 μM, 24 h
Experimental: Meg-01 and M07e cells were purchased from the American Type Culture Collection (Rockville, Md.) and Dami cells were a generous gift from Dr. Patricia J. Simpson-Haidaris (University of Rochester). All cells were cultured in RPMI-1640 tissue culture medium (Invitrogen) supplemented with 5% fetal bovine serum (FBS; Invitrogen), 10 mM HEPES (N-2-hydroxyethylpiperazine-N′-2-ethanesulfonic acid; Sigma), 2 mM L-glutamine (Invitrogen), 4.5 g/L glucose (Invitrogen), and 50 μg/mL gentamicin (Invitrogen). M07e cells were also supplemented with 100 ng/mL of granulocyte monocyte-colony stimulating factor (GM-CSF, R&D Systems). All treatments were performed in normal growth media. Dimethyl sulfoxide (DMSO) was used as a vehicle (control) in the experiments described below.
Platelets were isolated from megakaryocytes by centrifugation at 150 xg for 10 min. Supernatants underwent sequential centrifugation (500 xg for 10 min and 1000×g for 10 min). The remaining platelet pellet was fixed then permeabilized with a CD61 or CD41 antibody. 7-AAD (BD Pharmingen) was added for 10 min before analyzing the cells by flow cytometry. […]

[2] = system: human culture-derived platelets; test: Function of human culture-derived platelets (collagen response, spreading on fibrinogen); assay type: cell-based
Experimental: as §1
(§2) Coverslips were coated with 100 μg/mL of fibrinogen for 1 h and blocked with 0.5 mg/mL BSA for 1 h. Platelets were added to the fibrinogen-coated coverslips in Tyrode's buffer and fixed with glutaraldehyde, post-fixed with 1% osmium tetroxide, and dehydrated. Platelets were then coated with a gold/palladium film. Images were acquired using the Zeiss-Leo 982 FE-SEM (scanning electron microscope).

[3] = system: mouse bone marrow culture-derived platelets; test: Function of mouse bone marrow culture-derived platelets (collagen response, spreading on fibrinogen); assay type: cell-based, mouse (C57BL/6)
Experimental: as §1, §2

Structure (SMILES): CCCCCC=CC=C1C(=O)C=C[C@@H]1CC=CCCCC(=O)O [15d-PGJ2, 15-deoxy-Δ^12,14 prostaglandin J2]
- percentage of ROS positive cells, Mitosox Red staining [1]: increase in the percentage of ROS positive cells
- percentage of ROS positive cells, carboxy-H2DCFDA staining [1]: increase in the percentage of ROS positive cells
- platelets that decreased their size and increased their granularity in response to collagen (Meg-01-derived platelets): 68%
- platelet numbers compared with vehicle (C57BL/6 mice): higher platelet numbers
- platelet production (M07e cells): increased platelet production
- platelet spreading on fibrinogen ([2]; human culture-derived platelets, fibrinogen coated slide): spread in response to fibrinogen
- geometric mean fluorescence intensity of surface CD61, after collagen treatment ([2]; platelets from CD61+ cell cultures treated with 15d-PGJ2, collagen 10 μg/mL, 15 min): 20
- geometric mean fluorescence intensity of surface CD61, before collagen ([2]; platelets from CD61+ cell cultures treated with 15d-PGJ2, no collagen): 5
- platelet spreading on fibrinogen ([3]; mouse bone marrow culture-derived platelets, fibrinogen coated slide): spread in response to fibrinogen
- geometric mean fluorescence intensity of surface CD41, after collagen treatment ([3]; platelets from mouse bone marrow cultures treated with 15d-PGJ2, collagen 10 μg/mL, 15 min): 20
- geometric mean fluorescence intensity of surface CD41, before collagen ([3]; platelets from mouse bone marrow cultures treated with 15d-PGJ2, no collagen): 9
